Reference: patent US9012521B2, “Pyrroloquinoline quinone gel” (Mitsubishi Gas Chemical Company, Inc., priority 2010, dated 2015)

Key:
[1] = Dissolution test in water, monitored by absorption at 450 nm; assay type: physicochemical; settings: 1.3 mg PQQ powder in 2 mL water, room temperature; time to complete dissolution calculated from gradient of concentration change
Protocol: In Examples and Comparative Examples, UV measurements were performed using a HITACHI U-2000 Spectrophotometer. […] To an acrylic cell for UV measurement, 1.3 mg of the PQQ powder was added, followed by the addition of 2 mL of water. […] The dissolution in water was monitored by absorption at 450 nm at room temperature. Absorbance measurement was performed for one hour, and the duration until the complete dissolution was calculated from the gradient of change in the concentration.

[2] = Specific surface area by the BET method with N2 adsorption; assay type: physicochemical; settings: pre-treatment drying at 150° C. for 20 hours
Protocol: Using an Autosorb-6B manufactured by Quantachrome Instruments as the measurement apparatus, the specific surface area was determined by the BET method with N2 adsorption.

[3] = assay type: physicochemical
Description: When mixing the salt of pyrroloquinoline quinone with the dispersion medium, the salt of pyrroloquinoline quinone may be added to the dispersion medium, the dispersion medium may be added to the salt of pyrroloquinoline quinone, or the salt of pyrroloquinoline quinone and the disperse medium may be added into separate vessels. Preferably, the salt of pyrroloquinoline quinone can be added to the dispersion medium. Preferably, the concentration of the salt of pyrroloquinoline quinone here is the same or higher than the solubility. The “solubility” as used herein refers to the extent to which a solute dissolves in a solvent, and can be expressed by the concentration of the solute in the saturated solution. The solubility of the salt of pyrroloquinoline quinone can be suitably determined by the temperature of the mixture.

Dissolution time [1]: 10 min
specific surface area [2]: 2.9 m^2/g
solubility in water [3]: 0.299 g per 100 g of water
SMILES: O=C(O)c1cc(C(=O)O)c2c(n1)C(=O)C(=O)c1cc(C(=O)O)[nH]c1-2 [Comparative Example 1, Pyrroloquinoline quinone disodium]
